Data from PubChem BioAssay AID1902 (Broad Institute, 2009).
The source made the active and inactive calls.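 Rule for the calls: active = EC50 no more than a set limit of log units above the highest dose; inactive = the rest.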

Molecular target: S. pyogenes SKKanGAS, kanamycin survival, BacTiterGlo, 6 h
Assay: SKKanGAS survival reduction under kanamycin, dose response, streptokinase promoter inhibitor project, SKKanGAS strain, luminescence, dose confirmation (AID 1902);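 note: lower survival reflects blocked streptokinase promoter driving kanamycin resistance gene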

Structure (SMILES)	EC50
FC(F)(F)c1ccc(C2[C@H]3CN(Cc4cccnc4)[C@H](c4ccccc4)C34CC2(c2cccnc2)C4)cc1 (some centres not stated)	5.15 µM
O=C(NC(=S)N(CCCCO)C1CCCCC1)c1sc2ccccc2c1Cl	0.527 µM
CCC(C(=O)NCC1CCCO1)n1nc(C)c2sc3ccccc3c2c1=O (configuration not stated)	> 15 µM (inactive)
CC1Oc2cc3oc4c(O)c5c(cc4c(=O)c3c(O)c2C1(C)C)C=CC(C)(C)O5 (configuration not stated)	2.48 µM
OC(COc1cccc2ccccc12)CN1CCN(c2ccc(Cl)cc2)CC1 (configuration not stated)	15.4 µM
Cc1cccc(NC(=O)c2nc[nH]c2C(=O)N[C@@H](CC(C)C)C(=O)OCc2ccccc2)c1	1.68 µM
O=C(NNC1=C(C(=O)C(F)(F)F)CCC1)c1ccccc1O	0.724 µM
Oc1nc(Nc2ccccc2)sc1/C=C1\C=Nc2ccccc21	9.16 µM
COc1ccc(NC(=O)CSc2nc3nc(-c4cccs4)cc(C(F)(F)F)c3c(=O)[nH]2)c(OC)c1	7.42 µM
CCOC(=O)c1cccnc1SCC(=O)NC(C)CC (configuration not stated)	> 15 µM (inactive)
CCN1CCN(Cc2ccc(NC(=O)c3ccc(C)c(NC(=O)C(=O)c4c[nH]c5ccccc45)c3)cc2C(F)(F)F)CC1	3.34 µM
O=C(Cn1nnc(-c2ccccc2)n1)N/N=C/c1cc([N+](=O)[O-])ccc1O	0.75 µM
Cc1[nH]n(-c2cccc3ccccc23)c(=O)c1/C=N/NC(=O)c1cccc([N+](=O)[O-])c1	2.47 µM
Cc1nn(-c2ccccc2)c(Cl)c1/C=N/Nc1ccc(S(=O)(=O)Nc2ccccc2C(=O)O)cc1[N+](=O)[O-]	1.29 µM
COc1ccc(-c2nc(-c3cccs3)c(-c3cccs3)[nH]2)cc1OC	4.32 µM
CC(C)Oc1ccc(C(=O)Nc2nnc(C3=COCCO3)o2)cc1	0.794 µM
COc1ccccc1CCNC(=O)C(=O)c1cn(CC(=O)N2CCCC2)c2ccccc12	> 15 µM (inactive)
CC(C)CN1C(=S)SC(C)(C)C1n1oc(=O)n(-c2ccc(Cl)cc2)c1=O (configuration not stated)	4.33 µM
COc1cccc(C(=O)Nc2nnc(-c3ccc(F)cc3)o2)c1	1.28 µM
Nc1nc(NC(=O)/C=C/c2ccc(F)cc2)nn1-c1ccccc1	2.62 µM
CC1(C)S[C@@H]2[C@H](NC(=O)Cc3ccccc3)C(=O)N2[C@H]1C(=O)O	< 0.06 µM
COc1ccc(CNC(=O)Cc2csc(NC(=O)Nc3ccccc3OC)n2)cc1	15 µM
Cc1cc(/C=C2\C(=N)N3N=C(S(C)(=O)=O)SC3=NC2=O)c(C)n1Cc1ccccc1	4.77 µM
CCOC(=O)C1=C(c2ccc(OC)cc2)C(=O)c2ccccc2C1=O	1.78 µM
Cc1ccc(C(=O)N/N=C/c2ccc([N+](=O)[O-])s2)cc1	14 µM

Structure (SMILES)	EC50
Cc1c(C(=O)Nc2ccc(Oc3ccccc3)cc2)sc2nc3n(c(=O)c12)CCC3	6.21 µM
COc1ccc(OC)c(C2C=C(C34CC5CC(CC(C5)C3)C4)NC(=S)N2)c1 (configuration not stated)	2.96 µM
CCN1CCN(Cc2ccc(NC(=O)c3ccc(C)c(/C=C/c4cnc(Nc5cc(N6CCNCC6)nc(C)n5)cn4)c3)cc2C(F)(F)F)CC1	8.41 µM
COc1ccc(OC)c(CCNC(=O)C(=O)Nc2ccc3nc4n(c(=O)c3c2)CCCCC4)c1	10.1 µM
COc1ccc(C(=O)c2coc3c2C(=O)C(=O)c2ccccc2-3)cc1	5.65 µM
COc1ccc(/C=C/C(=O)NC(=S)NNC(=O)Cc2cccs2)cc1	1.23 µM
Cc1ccc(-c2cc([C@H]3[C@@H]4C=CCC[C@@]4(C)C(=O)N3Cc3ccccc3)ccc2F)cc1	3.44 µM
O=C(NCC1CCCO1)c1cc2c([nH]c3ccccc32)c(-c2cccc(Cl)c2)n1 (configuration not stated)	4.27 µM
CCCCCCCC(=O)NNC(=O)c1c(O)c2ccccc2n(CC)c1=O	1.3 µM
O=C(Nc1cccc(Cl)c1)Nc1cc(S(=O)(=O)N2CCCCC2)ccc1Cl	7.75 µM
O=C(Nc1nc2ccccc2n1CCOc1ccccc1)c1ccco1	6.87 µM
Cc1ccc(-n2c(-c3ccc(Br)cc3)c[n+]3c2CCc2ccc4cccnc4c2-3)cc1	3.6 µM
CC(C)Cn1c2c(c(O)c(C(=O)Nc3ncccc3O)c1=O)CCCC2	2.35 µM
CC1(C)CC(=O)C2=C(C1)N=C1c3ccccc3C(=O)C1C2c1ccc(Cl)cc1 (configuration not stated)	8.16 µM
N#Cc1c(-c2ccccc2)c(-c2ccccc2)nn(CC(=O)NNC(=O)Nc2ccc(Cl)c(Cl)c2)c1=O	5.3 µM
CCOC(=O)C(=NC(C)(C)C)NNc1cc(Cl)ccc1Cl	2.9 µM
C[C@H]1COc2c(C3(N)CC3)c(F)cc3c(=O)c(C(=O)O)cn1c23	6.2 µM
CCc1ccc(/C=C/c2c([N+](=O)[O-])c(=O)n(C)c(=O)n2C)cc1	11 µM
Cc1cc(C(=O)N/N=C/c2ccc([N+](=O)[O-])s2)n[nH]1	2.39 µM
CC1CCN(C(=O)c2ccc3c(c2)NC(=O)/C(=C/c2ccccc2)S3)CC1	2.66 µM
CC(C)C[C@H](NC(=O)c1nc[nH]c1C(=O)NC1CCN(C(=O)OC(C)(C)C)CC1)C(=O)OCc1ccccc1	5.47 µM
O=C(Nc1ccc2c(c1)CCC2)c1cc(S(=O)(=O)Nc2ccc(F)cc2)c(Cl)cc1Cl	4.04 µM
CCCOC(=O)c1ccc(Oc2c(-c3ccc(OCC)cc3O)n[nH]c2C)cc1	2.02 µM
Cc1noc(C)c1CSCC(=O)Nc1nc2ccc(Oc3ccccc3)cc2s1	4.85 µM
O=C(c1cc(-c2ccccc2)nc2ccccc12)N1CCN(c2ccccc2O)CC1	6.96 µM

Structure (SMILES)	EC50
O=C(CCl)c1ccc(Cc2ncc(C(F)(F)F)cc2Cl)s1	3.69 µM
O=C(Nc1ccc2nc(-c3ccc4nc[nH]c4c3)[nH]c2c1)c1cccs1	15.7 µM
CCOC(=O)C1=C(C)N=c2s/c(=C\c3ccc(O)c([N+](=O)[O-])c3)c(=O)n2C1c1ccccc1OC (configuration not stated)	6.9 µM
Cc1cc(C)c(OCC(=O)Nc2ccccc2N2CCCCC2)c(C)c1	4.38 µM
CCN(CC(=O)NC(C)(C)C)C(=O)COc1c(Cl)cc(Cl)c2ccc(C)nc12	0.499 µM
Cc1cc(NC(=S)N(Cc2ccc(Cl)cc2)Cc2ccc(C(=O)O)cc2)ccc1Cl	6.93 µM
COc1ccc(NC(=O)c2cc3cccc(OC)c3oc2=Nc2ccc(C(=O)O)cc2)cc1OC	2.1 µM
COc1cccc(N2CCN(c3ncnc4c3[nH]c3ccc(F)cc34)CC2C)c1 (configuration not stated)	6.85 µM
CCn1ccnc1CN1CCc2c([nH]c3ccccc23)C1C1CCCCC1 (configuration not stated)	2.02 µM
Cc1nc(N)nc(N)c1CCCc1ccc(Cl)c(Cl)c1	0.87 µM
c1ccc(-c2nc(C3CCCCC3)c3ccccc3n2)cc1	3.87 µM
CNC(CC(C)C)C(=O)NC1C(=O)NC(CC(N)=O)C(=O)NC2C(=O)NC3C(=O)NC(C(=O)NC(C(=O)O)c4cc(O)cc(O)c4-c4cc3ccc4O)C(O)c3ccc(c(Cl)c3)Oc3cc2cc(c3OC2OC(CO)C(O)C(O)C2OC2CC(C)(N)C(O)C(C)O2)Oc2ccc(cc2Cl)C1O (configuration not stated)	0.169 µM
CCOC(=O)c1ccc(NC(=O)c2nc(S(=O)(=O)Cc3ccccc3)ncc2Cl)cc1	9 µM
S=C(NCCSCc1ccc(Cl)cc1Cl)Nc1ccccc1	7.32 µM
COc1ccc(N=C2NN=C(c3c(C)[nH]c4ccccc34)CS2)cc1	7.32 µM
CN(C)Cc1nc2ccccc2c(=O)n1Cc1nc(-c2cc3ccccc3o2)cs1	1.82 µM
C/C(=N\NC(=O)c1cc(Br)ccc1O)c1ccccn1	< 0.06 µM
Nc1c(Cl)cc(-c2csc(N3CCCC3c3nc4cc(Cl)c(Cl)cc4n3CCOCCO)n2)cc1Cl (configuration not stated)	> 15 µM (inactive)
C=CC(C)(C)c1c(O)c(CC=C(C)C)c(O)c2c(=O)c3ccc(O)c(O)c3oc12	1.8 µM
O=C(O)CN1C(=O)/C(=C\c2ccccc2OCc2ccc(Cl)cc2Cl)SC1=S	2.73 µM
CC(C)c1ccc(NC(=O)c2cc(S(=O)(=O)NCC3COc4ccccc4O3)ccc2F)cc1 (configuration not stated)	5.37 µM
O=[N+]([O-])c1cc(S(=O)(=O)Nc2ccccc2)ccc1N1CCN(c2ccccc2)CC1	7.21 µM
COc1cc(C(=O)NNC(=S)NC(=O)c2ccccc2C)cc(OC)c1OC	1.88 µM
C=C(CC1([C@@H](NP(=O)(c2ccccc2)c2ccccc2)[C@H]2C[C@@H]2CCCC)CC1)c1ccccc1	3.64 µM
CCCOc1ccc(Cc2c(Cl)nc(SC)nc2N(C)C)cc1	3.46 µM

Structure (SMILES)	EC50
Cc1cc(COC(=O)C2N3C(=O)[C@@H](NC(=O)COc4ccccc4)[C@H]3SC2(C)C)on1 (some centres not stated)	0.119 µM
Cc1nc(NC(=O)c2ccc(Cl)cc2)sc1-c1csc(Nc2cccc(F)c2)n1	2.69 µM
Cc1cn(-c2cc(C(=O)Nc3ccc(C)c(NC(=O)C(=O)c4c[nH]c5ccccc45)c3)cc(C(F)(F)F)c2)cn1	2.78 µM
Cc1ccc(NC(=O)c2nc[nH]c2C(=O)N[C@@H](C)c2ccccc2)cc1	1.13 µM
C/C(=N\NC(=O)c1ccccc1N)c1ccc(NC(=O)Cc2ccccc2)cc1	4.95 µM
CCCOc1ccc(/C=C/c2c([N+](=O)[O-])c(=O)n(C)c(=O)n2C)cc1	7.11 µM
Cc1ccc(-n2cc3c(-c4cccc(Br)c4)nnc(C)c3n2)cc1	7.09 µM
CCOc1ccc(NS(=O)(=O)c2cc(NC(=O)c3ccc(C)cc3)ccc2Cl)cc1	3.72 µM
Cc1ccc(C)c(CN2CCCN(Cc3cc(C)ccc3C)S2(=O)=O)c1	2.58 µM
COc1ccccc1N1CC(C(=O)Nc2nnc(SCC(=O)N3CCCC3)s2)CC1=O (configuration not stated)	> 15 µM (inactive)
COc1ccc(N2CCN(C(=O)Cc3csc(NC(=O)Nc4ccccc4OC)n3)CC2)cc1	12.7 µM
O=c1c2ccccc2sn1-c1cc(S(=O)(=O)N2CCOCC2)ccc1N1CCOCC1	13.3 µM
CC12CCC(C(=O)N(CSC(=S)N/N=C\c3ccccc3O)C1=O)C2(C)C (configuration not stated)	2.55 µM
Cc1ccc(S(=O)(=O)N(C)CC(=O)N2CC(C)OC(C)C2)cc1 (configuration not stated)	> 15 µM (inactive)
COc1ccc(NC(C)C(=O)N/N=C/c2c(O)ccc3ccccc23)cc1 (configuration not stated)	1.14 µM
CO[C@H]1C=CO[C@@]2(C)Oc3c(C)c(O)c4c(O)c(c5c(c4c3C2=O)NC2(CCN(CC(C)C)CC2)N=5)=NC(=O)C(C)=CC=C[C@H](C)[C@H](O)[C@@H](C)[C@@H](O)[C@@H](C)[C@H](OC(C)=O)[C@@H]1C	< 0.06 µM
CCOC(=O)c1sc2ncnc(N3CCN(c4ccc(OC)cc4)CC3)c2c1C	10.3 µM
CC(C)C(Sc1nc(-c2ccccc2)cc(-c2ccccc2)c1C#N)C(=O)O (configuration not stated)	2.04 µM
O=C(NC(NC(=S)Nc1ccc(Cl)cc1Cl)C(Cl)(Cl)Cl)c1cccc([N+](=O)[O-])c1 (configuration not stated)	0.99 µM
CCc1ccc(N(CC(=O)NC2CC2)S(=O)(=O)c2ccc(C)cc2)cc1	> 15 µM (inactive)
O=S(=O)(Nc1ccc(O)c(Sc2nc3ccccc3s2)c1)c1cccc2ccccc12	3.09 µM
CCCCCn1c(CN2CCN(c3cc(Cl)ccc3C)CC2)nc2c1c(=O)[nH]c(=O)n2C	2.5 µM
